Data set [1] deals with human malignant melanoma cell line (A-375). The experiment in a line: Cytotoxicity in A-375 cells, CellTiter-Glo ATP viability, 48-h incubation. The format is cell-based. To be noted: for CC50 / cytotoxicity at 50 µM: Homo sapiens, 48 h; for CC50: A-375, 48 h, cytotoxic concentration that caused death of 50% cells; for CC50 / cytotoxicity at 50 µM / Cytotoxic activity in A-375 cells (in words): A-375 cells; for cytotoxicity at 50 µM: read-out: Primary Test Result (Cytotoxicity % at 50 µM in A-375 Cells); for Selectivity Index: ratio of CC50 in Hs27 fibroblasts over CC50 in A-375 melanoma cells; for Cytotoxic activity in A-375 cells (in words): SAR discussion. As for the experimental part: (§1) Human malignant melanoma cell line A-375 was kindly provided by Prof. Marikki Laiho (University of Helsinki, Finland) and Hs27 human skin fibroblast cell line was kindly provided by Dr. Carmen Escobedo-Lucea (University of Helsinki, Finland). The cells were maintained in Glutamax high glucose Dulbecco’s Modified Eagle’s Medium (DMEM, Gibco), supplemented with 10% fetal bovine serum (FBS, Gibco), at 37 °C, 5% CO2.
(§2) The cells were seeded to white frame and clear bottom 96-well plates (Perkin Elmer) at the density of 10,000 cells/well for A-375 cell line and 7500 cells/well for Hs27 cell line. The cells were grown at 37 °C, 5% CO2 until they reached 70–80% confluence (approximately 24 h). Stock solutions of test compounds and a positive control (camptothecin, Sigma-Aldrich, Saint Louis, MO, USA) were prepared in DMSO and diluted into assay medium (growth medium with 5% FBS) to the final concentration. Final DMSO concentration was 0.5% in all samples. The culture medium was removed from the plate and compounds added, 200 µL/well. After 48-h incubation, the amount of ATP, which is directly proportional to the number of cells present in culture, was quantified using CellTiter-Glo® Luminescent Cell Viability kit (Promega, Madison, WI, USA), according to manufacturer’s instructions.
(§3) Origin Graphing and Analysis, version 8.6 (OriginLab, Northampton, MA, USA) was used for determination of CC50 values. The cancer cell selectivity index (SI) was calculated as a ratio of CC50 values between Hs27 fibroblasts and A-375 melanoma cells.
On the technique in general: In ATP-based viability assays light output follows the ATP content of the culture.

The nature of data set [2]: Cytotoxicity in Hs27 cells, CellTiter-Glo ATP viability, 48-h incubation. To be noted: human, Hs27 normal skin fibroblast cells, Hs27 normal fibroblasts. The class given is cell-based. As for the experimental part: as §1, §2, §3
In data set [3] the test system is A2780S, A2780CP (SCP5), A549, MCF7, U251MG cells and NIH3T3. Details: method as in PMID 26711149. To be noted: cited from earlier work.
In data set [4] the test system is human cervical carcinoma HeLa cells. Further details: method as in doi:10.1016/j.tetlet.2010.07.016. The note with it: cited from earlier work.

On to `CC[C@@]1(O)C(=O)OCc2c1cc1n(c2=O)Cc2cc3ccccc3nc2-1` [Camptothecin, reference compound], for which, in data set [1], the CC50 – broadly, the concentration that lowers cell viability or growth by half – came out at 0.06 µM; the cytotoxicity at 50 µM is 94.7%; the “Selectivity Index” value was 92.3. This molecule showed a 50% cytotoxic concentration (CC50) at 48 h in data set [2] of 5.54 µM.
In the case of `CNCCCOc1c(Br)cc(CCNC(=O)/C(Cc2cc(Br)c(OC)c(Br)c2)=N/O)cc1Br` [Compound 1, (E)-N-[3,5-Dibromo-4-[3-(methylamino)propoxy]phenethyl]-3-(3,5-dibromo-4-methoxyphenyl)-2-(hydroxyimino)propenamide], the “Selectivity between A-375 and Hs27 (in words)” value in data set [1] (A-375 vs Hs27) is reported as “no selectivity”. Moreover, in data set [1], the midpoint of cytotoxicity, the CC50, lay at 4.3 µM; the cytotoxicity at 50 µM worked out at 97.9%; the “Selectivity Index” value is 1.2. In addition, the CC50 at 48 h in data set [2] worked out at 5.2 µM. For the same molecule, the “Cytotoxicity against various cancer cell lines and non-cancer NIH3T3 (in words)” value in data set [3] is on record as “cytotoxic”.
Regarding `COc1c(Br)cc(C/C(=N\O)C(=O)NCCc2cc(Br)c(OCCCN)c(Br)c2)cc1Br` [Compound 3], the “Cytotoxic effect on HeLa cells (in words)” value in data set [4] is recorded as “comparably strong cytotoxic effect”.
Turning to `COc1c(Br)cc(C/C(=N\O)C(=O)NCCc2cc(Br)c(O)c(Br)c2)cc1Br` [Compound 4], the “Cytotoxic effect on HeLa cells (in words)” value in data set [4] is reported as “comparably strong cytotoxic effect”.
For the molecule `COc1c(Br)cc(C/C(=N\O)C(=O)NCCc2cc(Br)c(OCCCN(C)C)c(Br)c2)cc1Br` [Compound 29, (E)-N-[3,5-Dibromo-4-[3-(dimethylamino)propoxy]phenethyl]-3-(3,5-dibromo-4-methoxyphenyl)-2-(hydroxyimino)propanamide], in data set [1], it took 6.3 µM to reach half-maximal cytotoxicity (CC50), the cytotoxicity at 50 µM was determined as 99.9% and the “Selectivity Index” value came out at 0.7. For the same molecule, in data set [2], the midpoint of cytotoxicity, the CC50 at 48 h, lay at 4.5 µM.
With `COc1c(Br)cc(C/C(=N\O)C(=O)Nc2ccc(Cl)c(Cl)c2)cc1Br` [Compound 30, (E)-3-(3,5-Dibromo-4-methoxyphenyl)-N-(3,4-dichlorophenyl)-2-(hydroxyimino)propanamide], the melting point (as a rule, the temperature, or range, at which the solid turns liquid) was 198 °C (dec.). Also, in data set [1], the CC50 was found to be 13.1 µM, the cytotoxicity at 50 µM stood at 101% and the “Selectivity Index” value is given as 1.2. In data set [2], half-maximal cytotoxicity (CC50 at 48 h) was put at 15.2 µM.
As to `COc1c(Br)cc(C/C(=N\O)C(=O)NCc2ccc(Cl)c(Cl)c2)cc1Br` [Compound 31, (E)-3-(3,5-Dibromo-4-methoxyphenyl)-N-(3,4-dichlorobenzyl)-2-(hydroxyimino)propanamide], in data set [1], it took 12.4 µM to reach half-maximal cytotoxicity (CC50), the cytotoxicity at 50 µM amounted to 99.7% and the “Selectivity Index” value is recorded as 1.8. For the same molecule, the cytotoxic concentration (CC50) at 48 h in data set [2] was found to be 22.3 µM.
For the molecule `COc1c(Br)cc(C/C(=N\O)C(=O)Nc2ccc(Cl)c(C(F)(F)F)c2)cc1Br` [Compound 32, (E)-N-[4-Chloro-3-(trifluoromethyl)phenyl]-3-(3,5-dibromo-4-methoxyphenyl)-2-(hydroxyimino) propanamide], in data set [1], the midpoint of cytotoxicity, the CC50, lay at 10.3 µM; the cytotoxicity at 50 µM was found to be 99.8%; the “Selectivity Index” value is 1.2. In data set [2], this molecule registered a CC50 at 48 h of 12 µM.
For the molecule `COc1ccc(NC(=O)/C(Cc2cc(Br)c(OC)c(Br)c2)=N/O)cc1Cl` [Compound 33, (E)-N-(3-Chloro-4-methoxyphenyl)-3-(3,5-dibromo-4-methoxyphenyl)-2-(hydroxyimino)propanamide], in data set [1], the CC50 came out at 13.5 µM, the cytotoxicity at 50 µM was 98.9% and the “Selectivity Index” value amounted to 2.0. Moreover, the CC50 at 48 h in data set [2] was 26.4 µM.
For the molecule `COc1ccc(NC(=O)/C(Cc2cc(Br)c(OC)c(Br)c2)=N/O)cc1Br` [Compound 34, (E)-N-(3-Bromo-4-methoxyphenyl)-3-(3,5-dibromo-4-methoxyphenyl)-2-(hydroxyimino)propanamide], in data set [1], it took 16.2 µM to reach half-maximal cytotoxicity (CC50), the cytotoxicity at 50 µM amounted to 100% and the “Selectivity Index” value is on record as 1.4. Further, it took 22.5 µM to reach half-maximal cytotoxicity in data set [2] (CC50 at 48 h).
Turning to `COc1c(Br)cc(C/C(=N\O)C(=O)Nc2cc(Cl)cc(Cl)c2)cc1Br` [Compound 35, (E)-3-(3,5-Dibromo-4-methxyphenyl)-N-(3,5-dichlorophenyl)-2-(hydroxyimino)propanamide], in data set [1], it took 9.6 µM to reach half-maximal cytotoxicity (CC50), the cytotoxicity at 50 µM is 101% and the “Selectivity Index” value was 1.3. Further, the CC50 at 48 h in data set [2] turned out to be 12.2 µM.
For the molecule `COc1c(Br)cc(C/C(=N\O)C(=O)Nc2ccccn2)cc1Br` [Compound 36, (E)-3-(3,5-Dibromo-4-methoxyphenyl)-2-(hydroxyimino)-N-(pyridin-2-yl)propanamide], the melting point was 192 to 196 °C (dec.). In addition, in data set [1], the cytotoxic concentration (CC50) was 4.7 µM, the cytotoxicity at 50 µM came to 84.7% and the “Selectivity Index” value was found to be 4.1. For the same molecule, the CC50 at 48 h in data set [2] was determined as 19.4 µM.
Take `COc1c(Br)cc(C/C(=N\O)C(=O)Nc2cccnc2)cc1Br` [Compound 37, (E)-3-(3,5-Dibromo-4-methoxyphenyl)-2-(hydroxyimino)-N-(pyridin-3-yl)propanamide]: in data set [1], the CC50 came to 26.4 µM and the cytotoxicity at 50 µM was determined as 83.5%.
As for `COc1c(Br)cc(C/C(=N\O)C(=O)Nc2ccncc2)cc1Br` [Compound 38, (E)-3-(3,5-Dibromo-4-methoxyphenyl)2-(hydroxyimino)-N-(pyridin-4-yl)propanamide], the cytotoxicity at 50 µM in data set [1] worked out at 71.1%.
Consider `COc1c(Br)cc(C/C(=N\O)C(=O)NCc2cccnc2)cc1Br` [Compound 39, (E)-3-(3,5-Dibromo-4-methoxyphenyl)-2-(hydroxyimino)-N-(pyridin-3-ylmethyl)propanamide], for which, in data set [1], the half-maximal cytotoxic concentration (CC50) is 22.1 µM, the cytotoxicity at 50 µM came out at 93.2% and the “Cytotoxic activity in A-375 cells (in words)” value (“Cytotoxic activity” for short) is on record as “retained the activity”.
For the molecule `COc1c(Br)cc(C/C(=N\O)C(=O)Nc2ccc(N(C)C)cc2)cc1Br` [Compound 40, (E)-3-(3,5-Dibromo-4-methoxyphenyl)-N-[4-(dimethylamino)phenyl]-2-(hydroxyimino)propanamide], in data set [1], the midpoint of cytotoxicity, the CC50, lay at 27.8 µM and the cytotoxicity at 50 µM was found to be 99.1%.
Consider `COc1ccc(C/C(=N\O)C(=O)Nc2ccc(OC)c(Br)c2)cc1Br` [Compound 41, (E)-N,3-Bis(3-bromo-4-methoxyphenyl)-2-(hydroxyimino)propanamide], for which, in data set [1], the midpoint of cytotoxicity, the CC50, lay at 19.8 µM; the cytotoxicity at 50 µM is 99.2%; the “Cytotoxic activity” value is listed as “showed activity”.
On to `COc1ccc(C/C(=N\O)C(=O)Nc2ccccn2)cc1Br` [Compound 42, (E)-3-(3-Bromo-4-methoxyphenyl)-2-(hydroxyimino)-N-(pyridin-2-yl)propanamide], for which the melting point was 214 to 217 °C (dec.). In data set [1], the cytotoxicity at 50 µM is 2.7% and the “Cytotoxic activity” value was “inactive”.
Consider `COc1ccc(C/C(=N\O)C(=O)NCc2ccc(Cl)c(Cl)c2)cc1` [Compound 43, (E)-N-(3,4-Dichlorobenzyl)-2-(hydroxyimino)-3-(4-methoxyphenyl)propanamide], for which the cytotoxicity at 50 µM in data set [1] was determined as 21.5%.
In the case of `COc1ccc(C/C(=N\O)C(=O)Nc2ccccn2)cc1` [Compound 44, (E)-2-(Hydroxyimino)-3-(4-methoxyphenyl)-N-(pyridin-2-yl)propanamide], in data set [1], the cytotoxicity at 50 µM was found to be 0.4% and the “Cytotoxic activity” value was “inactive”.
As to `COc1ccc(C/C(=N\O)C(=O)Nc2ccccn2)cc1Cl` [Compound 45, (E)-3-(3-Chloro-4-methoxyphenyl)-2-(hydroxyimino)-N-(pyridin-2-yl)propanamide], in data set [1], the cytotoxicity at 50 µM was found to be 4% and the “Cytotoxic activity” value was “inactive”.

Source of the values: publication PMC6316490, “Synthesis and Antiproliferative Activity of Marine Bromotyrosine Purpurealidin I and Its Derivatives” (Marine Drugs, 2018).
